Experiments:
Test in all cases: relative viability (nuclei count vs DMSO), 5 days (fraction); higher = more cells survive
[1] = compound: NC1(c2ccc(-c3nc4ccn5c(=O)[nH]nc5c4cc3-c3ccccc3)cc2)CCC1 [MK-2206] + C[C@@H](Oc1cc(-c2cnn(C3CCNCC3)c2)cnc1N)c1c(Cl)ccc(F)c1Cl [Crizotinib] (partner 1 µM)
Summary of the method: (§1)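 One day after seeding in 1536-well plates, lung cancer cell lines were dosed by pin tool. Dosing was either single-drug or a fixed anchor-drug dose plus five library-drug doses (not always all listed) in √10 steps. After 5 days, nuclei were stained in one fix-and-stain step and counted on 4× images, and relative viability is the nuclei count of treated wells over that of vehicle wells, given as the median of duplicate plates.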

[2] = compound: CS(=O)(=O)N1CCN(Cc2cc3nc(-c4cccc5[nH]ncc45)nc(N4CCOCC4)c3s2)CC1 [Pictilisib] + Cc1cc(Nc2cc(N3CCN(C)CC3)nc(Sc3ccc(NC(=O)C4CC4)cc3)n2)n[nH]1 [Tozasertib] (partner 0.1 µM)
Summary of the method: as §1

[3] = compound: NC1(c2ccc(-c3nc4ccn5c(=O)[nH]nc5c4cc3-c3ccccc3)cc2)CCC1 [MK-2206] + O=C(CCCCCCC(=O)Nc1ccccc1)NO [Vorinostat] (partner 1 µM)
Summary of the method: as §1

[4] = compound: CS(=O)(=O)N1CCN(Cc2cc3nc(-c4cccc5[nH]ncc45)nc(N4CCOCC4)c3s2)CC1 [Pictilisib] + COc1cccc2cc(-c3nc([C@H]4CC[C@H](C(=O)O)CC4)n4ncnc(N)c34)[nH]c12 [OSI-027] (partner 0.5 µM)
Summary of the method: as §1

[5] = compound: NC1(c2ccc(-c3nc4ccn5c(=O)[nH]nc5c4cc3-c3ccccc3)cc2)CCC1 [MK-2206] + CCNC(=O)c1noc(-c2cc(C(C)C)c(O)cc2O)c1-c1ccc(CN2CCOCC2)cc1 [Luminespib] (partner 0.01 µM)
Summary of the method: as §1

Cell Line	relative viability ([1]; first compound 0.01 µM)	relative viability ([1]; first compound 0.03162 µM)	relative viability ([1]; first compound 0.3162 µM)	relative viability ([1]; first compound 1 µM)	relative viability ([2]; first compound 0.02 µM)	relative viability ([2]; first compound 0.06325 µM)	relative viability ([2]; first compound 0.6325 µM)	relative viability ([2]; first compound 2 µM)	relative viability ([3]; first compound 0.01 µM)	relative viability ([3]; first compound 0.03162 µM)	relative viability ([3]; first compound 0.3162 µM)	relative viability ([3]; first compound 1 µM)	relative viability ([4]; first compound 0.02 µM)	relative viability ([4]; first compound 0.06325 µM)	relative viability ([4]; first compound 0.6325 µM)	relative viability ([4]; first compound 2 µM)	relative viability ([5]; first compound 0.01 µM)	relative viability ([5]; first compound 0.03162 µM)	relative viability ([5]; first compound 0.3162 µM)	relative viability ([5]; first compound 1 µM)
NCI-H2170	1.17	1.41	1.21	1.18	0.875	0.823	0.61	0.391	0.829	0.847	0.769	0.699	0.776	0.711	0.642	0.418	0.697	0.822	0.616	0.557
NCI-H2228	0.445	0.348	0.343	0.339	0.272	0.211	0.169	0.0908	0.741	0.857	0.588	0.386	0.587	0.431	0.283	0.155	0.167	0.188	0.14	0.145
NCI-H2347	0.733	0.761	0.708	0.67	0.512	0.517	0.462	0.285	0.641	0.581	0.645	0.555	0.458	0.213	0.286	0.217	0.46	0.399	0.426	0.721
NCI-H2405	0.79	0.858	0.83	0.786	0.764	0.725	0.663	0.348	1.04	1.09	1.07	0.894	0.548	0.569	0.486	0.278	0.713	0.853	0.532	0.559
NCI-H3122	0.261	0.278	0.218	0.263	0.323	0.311	0.321	0.142	0.924	0.969	0.944	0.871	0.909	0.786	0.435	0.172	0.118	0.1	0.0816	0.084
PC-3 [JPC-3]	0.973	0.98	0.946	1.03	0.84	0.893	0.736	0.784	0.796	0.691	0.826	0.755	0.591	0.718	0.621	0.433	0.601	0.652	0.627	0.705
PC-14	0.826	0.928	0.914	0.879	0.61	0.583	0.641	0.46	0.73	0.79	0.55	0.669	1.02	1	0.557	0.266	0.181	0.214	0.143	0.159
RERF-LC-KJ	0.808	0.806	0.871	0.842	0.5	0.529	0.477	0.352	0.651	0.741	0.603	0.62	0.531	0.559	0.402	0.371	1.27	1.11	0.971	1.06
SK-LU-1	0.941	0.912	0.964	0.877	0.362	0.304	0.3	0.233	0.818	0.778	0.823	0.735	0.38	0.335	0.185	0.19	0.217	0.209	0.211	0.195
SK-MES-1	0.953	1.02	1.04	0.816	1	0.982	0.822	0.649	1.02	1.15	1.02	1.05	0.596	0.566	0.334	0.215	0.901	0.756	0.751	0.751
SW 1573	0.814	0.762	0.493	0.748	0.164	0.174	0.146	0.137	0.665	0.94	0.449	0.6	0.615	0.584	0.362	0.237	0.275	0.192	0.201	0.184
